# “And” between values parts separate entries of the source, which are not always exact repeats. Identical values can stand only once.
# What was measured:
# [1] = test system: HIV transcripts (TAR, LLTR, Pol, PolyA, TatRev); experiment: Latency reversal assay: cell-associated HIV transcripts (RT-ddPCR) 24 hours after anti-CD3/CD28 activation of PBMCs from ART-suppressed PWH; format: cell-based; design: key to TatRev: % of activated DMSO control, normalized to 1 μg total RNA; Elongated (LLTR) HIV transcripts, median relative to activated DMSO, initial screening / Midtranscribed (Pol) HIV transcripts, median relative to activated DMSO, initial screening / Multiply spliced (TatRev) HIV transcripts, median relative to activated DMSO, initial screening: concentration or dose not given beside the values; conditions: for Pol HIV transcripts (DMSO αCD3/28 = 100) / PolyA HIV transcripts (DMSO αCD3/28 = 100) / TatRev HIV transcripts (DMSO αCD3/28 = 100): αCD3/28-activated, ruxolitinib 4μM, triptolide 25-50nM, alvocidib 40nM, dinaciclib 8nM, AZD4573 8nM, quercetin 5μM, pladienolide B 10nM, isoginkgetin 25μM, herboxidiene 5nM, KRIBB11 2.5μM, tanespimycin 5μM, mithramycin A 25nM; for PolyA/LLTR / TatRev/PolyA / LLTR/TAR: DMSO+CD3/28 = 1, Fig 3B, C and D; for PolyA / TatRev: DMSO+αCD3/28 = 100, Fig 3A; for Effect on HIV transcripts in the initial drug screen (in words): 24 hours after activation
# Procedure: We selected 26 small molecules targeting pathways implicated in HIV transcription or the blocks to HIV transcription underlying latency (Supplemental Table 1). […] Initial screening of all drugs was performed in freshly isolated PBMCs from 2 ART-suppressed individuals (Figure 1 and Supplemental Figure 2). PBMCs were cultured in the presence of individual drugs in DMSO or DMSO alone as a control, subsequently activated (anti-CD3/CD28), and harvested after 24 hours. […] The progression through different blocks to HIV transcription was quantified by measuring the levels of initiated (TAR), 5′ elongated (LLTR), midtranscribed/unspliced (Pol), completed (PolyA), and multiply spliced (TatRev) HIV transcripts. The levels of those HIV transcripts were normalized to 1 μg of total cellular RNA (to normalize for the effect of the drug on global cellular transcription) and expressed as a percentage of the activated DMSO control.
# (§1) Figure 1 Screening of candidate LPAs by measuring the change in multiply spliced HIV transcripts after activation. Each drug was tested in PBMCs from 2 ART-suppressed study participants (denoted in the legend by varying symbol shapes). PBMCs were aliquoted into wells at 6 × 10^6 cells/well. After activation, the cells were cultured with antiretrovirals in the presence of individual drugs in DMSO or DMSO alone as control. All conditions were tested in the presence of CD3/28 T cell–activating beads, except for the unactivated DMSO condition. (A) After 24 hours, the viability was measured by trypan blue staining and then normalized to the levels of the activated DMSO (% of activated DMSO). Bars indicate medians. (B) Total cellular RNA was extracted, and the levels of multiply spliced HIV transcripts (TatRev) were measured by RT-ddPCR, normalized to 1 μg of total cellular RNA, and expressed as a percentage of the activated DMSO control (% of activated DMSO). RT-dd, reverse transcription digital droplet; vRNA, viral RNA; HAT, histone acetyltransferase.
# The ability of our candidate LPAs to inhibit HIV transcriptional progression after activation was examined in PBMCs from a minimum of 7 PWH per drug tested (Figure 3). PBMCs were cultured in the presence of individual drugs in DMSO or in DMSO alone as a control, subsequently activated (anti-CD3/CD28), and harvested after 24 hours.
# Each drug was tested in PBMCs from 7 ART-suppressed study participants. The PBMCs were aliquoted into wells at 6 × 10^6 cells/well. After activation, the cells were cultured with antiretrovirals in the presence of individual drugs in DMSO or DMSO alone as control. All conditions were tested in the presence of CD3/28 T cell–activating beads, except for the unactivated DMSO condition. After 24 hours, total RNA was extracted, and the progression through different stages of HIV transcription was quantified by measuring the levels of initiated (TAR), 5′ elongated (LLTR), midtranscribed/unspliced (Pol), completed (PolyA), and multiply spliced (TatRev) HIV transcripts. (A) The levels of all HIV transcripts were normalized to 1 μg of total cellular RNA and expressed as a percentage of the activated DMSO control (% of activated DMSO). Medians are shown as well as the individual values per study participant in different colors. (B–D) The effect of each drug on HIV transcriptional progression after activation was analyzed by the ratio of one HIV transcript to another. Ratios are independent of HIV infection frequency or normalization to cell numbers. Shown are the proportion of (B) all HIV transcripts that were elongated (LLTR/TAR), (C) elongated HIV transcripts that were completed spliced (PolyA/LLTR), and (D) completed transcripts that were multiply spliced (TatRev/PolyA).
# [2] = test system: PBMCs; experiment: Cell viability by trypan blue staining after 24 hours; format: cell-based, human; design: key to Viability (dose-response): % of activated DMSO control viability; conditions: for Viability (dose-response): 1 participant per drug, in % (unit assumed)
# Procedure: as §1
# For quantification of cell-associated HIV transcripts, PBMCs were harvested either after 24 hours or after 6 days. The cell viabilities were measured by trypan blue staining; then the cells were pelleted by centrifuging at 300g for 6 minutes and stored at –80°C. For quantification of virion-associated HIV RNA, cell culture supernatant was collected from 6 × 10^6 PBMCs that were treated and activated for 6 days as described above. Residual cells and cellular debris were subsequently removed from the supernatant by differential centrifugation (300g for 6 minutes, then 20,000g for 10 minutes), and the supernatant was stored at –80°C.
# [3] = 2.5μM, 24 h after αCD3/28 activation, each column one participant
# [4] = initial screening, 2 participants, 24 hours, Supplemental Figure 2
molecule,measurement,setting,value
CNc1ccc([N+](=O)[O-])c(Nc2ccc3[nH]ncc3c2)n1 [KRIBB11],LLTR HIV transcripts (DMSO+αCD3/28 = 100),[1]; [3],71.02 and 48.35 and 38.5 and 36.33 and 35.09 and 15.92 and 24.32
same,Pol HIV transcripts (DMSO+αCD3/28 = 100),[1]; [3],19.01 and 13.73 and 14.61 and 76.94 and 12.5 and 1.36 and 0
same,TAR HIV transcripts (DMSO+αCD3/28 = 100),[1]; [3],122.57 and 166.06 and 91.93 and 75.64
same,TatRev HIV transcripts (DMSO+αCD3/28 = 100),[1]; [3],11.03 and 9.21 and 38.96 and 12.13 and 2.02 and 0 and 8.77
same,"HIV transcriptional elongation, ratio LLTR/TAR","[1]; 24 hours, compared with activated DMSO, Figure 3B",inhibited
same,"HIV transcriptional completion, ratio PolyA/LLTR","[1]; 24 hours, compared with activated DMSO, Figure 3C",reduced completion
same,Reduction of multiply spliced or completed HIV transcripts in drug screen (selection as candidate LPA),"[1]; initial screening, 2 participants, 24 hours",more than 50%
same,"Elongated (LLTR) HIV transcripts, median relative to activated DMSO, initial screening",[1]; [4],60%
same,"Midtranscribed (Pol) HIV transcripts, median relative to activated DMSO, initial screening",[1]; [4],16%
same,Pol HIV transcripts (DMSO αCD3/28 = 100),[1]; participant 2027,73.68
same,PolyA HIV transcripts (DMSO αCD3/28 = 100),[1]; participant 2027,106.67
same,TatRev HIV transcripts (DMSO αCD3/28 = 100),[1]; participant 2027,11.11
same,Pol HIV transcripts (DMSO αCD3/28 = 100),[1]; participant 2147a,33.33
same,PolyA HIV transcripts (DMSO αCD3/28 = 100),[1]; participant 2147a,22.8
same,TatRev HIV transcripts (DMSO αCD3/28 = 100),[1]; participant 2147a,46.99
same,Pol HIV transcripts (DMSO αCD3/28 = 100),[1]; participant 2256,169.23
same,PolyA HIV transcripts (DMSO αCD3/28 = 100),[1]; participant 2256,89.76
same,TatRev HIV transcripts (DMSO αCD3/28 = 100),[1]; participant 2256,84.19
same,PolyA HIV transcripts (DMSO αCD3/28 = 100),[1]; participant 2461,176.92
same,Pol HIV transcripts (DMSO αCD3/28 = 100),[1]; participant 2747,8.97
same,PolyA HIV transcripts (DMSO αCD3/28 = 100),[1]; participant 2747,19.67
same,TatRev HIV transcripts (DMSO αCD3/28 = 100),[1]; participant 2747,30
same,Multiply spliced HIV transcripts (TatRev) (Fig 1B),"[1]; study participant 150a, 24 hours",11.03 % of activated DMSO
same,PolyA/LLTR,[1]; study participant 150a,0.3562
same,TatRev/PolyA,[1]; study participant 150a,0.4361
same,PolyA,[1]; study participant 150a,25.3
same,TatRev,[1]; study participant 150a,11.03
same,Multiply spliced HIV transcripts (TatRev) (Fig 1B),"[1]; study participant 152, 24 hours",9.21 % of activated DMSO
same,PolyA/LLTR,[1]; study participant 152,0.4136
same,TatRev/PolyA,[1]; study participant 152,0.4605
same,PolyA,[1]; study participant 152,20
same,TatRev,[1]; study participant 152,9.21
same,PolyA/LLTR,[1]; study participant 163,0.6494
same,TatRev/PolyA,[1]; study participant 163,1.558
same,PolyA,[1]; study participant 163,25
same,TatRev,[1]; study participant 163,38.96
same,LLTR/TAR,[1]; study participant 1379,0.1731
same,PolyA/LLTR,[1]; study participant 1379,0.3046
same,TatRev/PolyA,[1]; study participant 1379,0
same,PolyA,[1]; study participant 1379,4.85
same,TatRev,[1]; study participant 1379,0
same,LLTR/TAR,[1]; study participant 2147b,0.3199
same,PolyA/LLTR,[1]; study participant 2147b,0.5626
same,TatRev/PolyA,[1]; study participant 2147b,0.4866
same,PolyA,[1]; study participant 2147b,34.68
same,TatRev,[1]; study participant 2147b,12.13
same,LLTR/TAR,[1]; study participant 2256,0.2113
same,PolyA/LLTR,[1]; study participant 2256,0.2703
same,TatRev/PolyA,[1]; study participant 2256,0.2127
same,PolyA,[1]; study participant 2256,9.49
same,TatRev,[1]; study participant 2256,2.02
same,LLTR/TAR,[1]; study participant 5557,0.3215
same,PolyA/LLTR,[1]; study participant 5557,0.6238
same,TatRev/PolyA,[1]; study participant 5557,0.5784
same,PolyA,[1]; study participant 5557,15.17
same,TatRev,[1]; study participant 5557,8.77
same,Viability (Fig 1A),[2]; study participant 150a,102.97 % of activated DMSO
same,Viability (Fig 1A),[2]; study participant 152,101.83 % of activated DMSO
CN1CC[C@H](c2c(O)cc(O)c3c(=O)cc(-c4ccccc4Cl)oc23)[C@H](O)C1 [alvocidib],Viability (dose-response),[2]; dose 4 nM,81
same,Viability (dose-response),[2]; dose 10 nM,85
same,Viability (dose-response),[2]; dose 40 nM,95.181
same,Viability (dose-response),[2]; dose 100 nM,77
same,Viability (Fig 1A),[2]; study participant 150a,98.54 % of activated DMSO
mithramycin A,Effect on HIV transcripts in the initial drug screen (in words),"[1]; initial screening, 2 participants",no effect after 24 hours
same,Effect on HIV transcripts in the initial drug screen (in words),"[1]; initial screening, 2 participants, listed as Mithramycin A",lack of an effect at 24 hours
CCc1cnn2c(NCc3ccc[n+]([O-])c3)cc(N3CCCC[C@H]3CCO)nc12 [dinaciclib],Viability (dose-response),[2]; dose 1 nM,89.474
same,Viability (dose-response),[2]; dose 4 nM,89.815
same,Viability (dose-response),[2]; dose 8 nM,89.726
same,Viability (Fig 1A),[2]; study participant 150a,96.36 % of activated DMSO
same,Viability (Fig 1A),[2]; study participant 152,99.43 % of activated DMSO
N#CC[C@H](C1CCCC1)n1cc(-c2ncnc3[nH]ccc23)cn1 [ruxolitinib],mrna remaining at 4 µM,"[1]; Human immunodeficiency virus 1, PBMC, 24 h, 4μM, 24 h after αCD3/28 activation, each column one participant, read-out: TAR HIV transcripts (DMSO+αCD3/28 = 100)",34.5%
same,Viability (dose-response),[2]; dose 0.4 µM,90.244
same,Viability (dose-response),[2]; dose 1 µM,87.333
same,Viability (dose-response),[2]; dose 4 µM,92.053
same,Viability (dose-response),[2]; dose 10 µM,89.32
same,Viability (Fig 1A),[2]; study participant 150a,95.89 % of activated DMSO
same,Viability (Fig 1A),[2]; study participant 152,102.01 % of activated DMSO
